Experimental data from patent US4512986A, “Progrestationally active steroids” (priority 1983, dated 1985).
“Also recorded” adds a separate entry of the source.

Key:
[1] = target: T1, Cytosol Progesterone Receptor of the Estrogen-primed Immature Rabbit Uterus (Oryctolagus cuniculus, UniProt P06186); experiment: Relative binding affinity for progesterone receptor (competition with 3H-progesterone); set-up: species or system rabbit (New Zealand White)
T1 construct: cytosol progesterone receptor of the estrogen-primed immature rabbit uterus; tissue Dutchland Laboratories, Inc., Denver, Pa (animals); host or cells: uterus cytosol of estradiol-treated immature female New Zealand White rabbits
T1 sequence (P06186 1-930): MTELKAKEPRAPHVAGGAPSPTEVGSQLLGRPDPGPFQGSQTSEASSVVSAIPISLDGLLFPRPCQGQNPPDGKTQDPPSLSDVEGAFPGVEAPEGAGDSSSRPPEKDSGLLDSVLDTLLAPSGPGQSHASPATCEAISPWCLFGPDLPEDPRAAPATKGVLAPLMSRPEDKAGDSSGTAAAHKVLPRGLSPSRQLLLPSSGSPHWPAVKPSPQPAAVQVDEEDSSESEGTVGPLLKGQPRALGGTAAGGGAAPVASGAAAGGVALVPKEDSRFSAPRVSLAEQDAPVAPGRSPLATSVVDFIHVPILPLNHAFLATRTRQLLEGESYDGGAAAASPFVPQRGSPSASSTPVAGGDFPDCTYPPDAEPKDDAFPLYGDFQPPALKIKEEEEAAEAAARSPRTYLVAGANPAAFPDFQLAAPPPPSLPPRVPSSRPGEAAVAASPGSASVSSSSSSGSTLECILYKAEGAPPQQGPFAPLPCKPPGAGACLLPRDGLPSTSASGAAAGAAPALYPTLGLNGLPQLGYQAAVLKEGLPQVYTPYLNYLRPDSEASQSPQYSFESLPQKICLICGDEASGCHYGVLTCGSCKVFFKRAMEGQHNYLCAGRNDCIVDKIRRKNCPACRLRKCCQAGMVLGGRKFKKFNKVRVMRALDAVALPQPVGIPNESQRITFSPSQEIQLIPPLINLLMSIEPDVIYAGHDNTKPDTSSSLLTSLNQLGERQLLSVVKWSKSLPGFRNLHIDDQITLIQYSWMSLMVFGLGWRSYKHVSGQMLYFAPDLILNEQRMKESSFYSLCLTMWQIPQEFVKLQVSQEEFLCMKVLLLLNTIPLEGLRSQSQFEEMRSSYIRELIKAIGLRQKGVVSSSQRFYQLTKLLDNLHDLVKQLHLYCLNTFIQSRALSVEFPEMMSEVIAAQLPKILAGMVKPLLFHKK

[2] = system: estrous cycle of rats; experiment: Suppression of estrous cycles in rats; assay type: in vivo, rat; details: sc, 10 days
Experimental: A control group was treated in parallel with 0.2 ml peanut oil per day. Treatment commenced at metestrus and vaginal smears were taken each morning during the 10-day treatment period and for 16 to 18 days thereafter.

[3] = system: cycling rats; experiment: Blockade of ovulation in rats; assay type: in vivo, rat (Charles River CD); details: for No. Rats Ovulated (of rats treated) / No. of Oviductal Eggs in Rats that Ovulated (X ± S.D.): single sc
Source text: The treated rats were sacrificed on the morning of expected estrus and eggs, if present, were flushed from the oviducts and counted. | *This assay employs cycling Charles River CD rats. For methods refer to | Beattie, C. W. and A. Corbin, Endocrinology 97, 885, 1975. […] | diestrus. Rats were sacrificed 43 to 44 hr later on the morning of | expected estrus. Eggs, if present, were flushed from oviducts and counted | under a stereomicroscope.

With C#C[C@]1(C(C)=O)CC[C@H]2[C@@H]3CCC4=CC(=O)CC[C@]4(C)[C@H]3CC[C@@]21C [17α-Ethynylprogesterone, 17α-ethynylprogesterone] the “RBA, mean of assays (X±S.D.)” value ([1]; 16 to 18 hour incubation at 0° C., spurious value 11 excluded) was 189±55, the RBA ([1]; Assay 1, 16-18 hour incubation, progesterone = 100, 5α-dihydro-17α-ethynyl: lot 1) was 156% and the RBA ([1]; Assay 2, 16-18 hour incubation, progesterone = 100, 5α-dihydro-17α-ethynyl: lot 1) was 267%. The RBA ([1]; Assay 3, 16-18 hour incubation, progesterone = 100, 5α-dihydro-17α-ethynyl: lot 1) was 144%, the RBA ([1]; two-hour incubation at 0° C.) was 352 and the “estrous cycle during treatment, in words” value ([2]; 50 μg/day) was “continued regular four-day cycles during treatment”. For the same compound, the “estrous cycle during treatment, in words” value ([2]; 100 μg/day) was “estrous cycles were disrupted; also recorded: some degree of follicular development occurred, but that ovulation was inhibited during treatment”, the “estrous cycle during treatment, in words” value ([2]; 250 μg/day) was “estrous cycles were disrupted” and the “estrous cycle during treatment, in words” value ([2]; 500 μg/day) was “estrous cycles were disrupted; also recorded: follicular development and ovulation were effectively suppressed”. The “ovulation, in words” value ([3]; 500 μg progesterone, 100, 250 or 500 μg 17α-ethynylprogesterone) was “ovulation was blocked in most rats”, the “ovulation, in words” value ([3]; 100 or 250 μg progesterone, 50 μg 17α-ethynylprogesterone) was “ovulated in a normal fashion” and the “potency in blocking ovulation relative to (±)-norgestrel, in words” value ([3]; comparison with literature) was “equipotent with (±)-norgestrel”. The “potency in blocking ovulation relative to progesterone, in words” value ([3]; sc) was “about five times as potent as progesterone”, the “No. Rats Ovulated (of rats treated)” value ([3]; 50 μg/rat) was 4/5 and the “No. of Oviductal Eggs in Rats that Ovulated (X ± S.D.)” value (from here on “No. of Oviductal Eggs”) ([3]; 50 μg/rat) was 10.5 ± 2.1. The “No. Rats Ovulated (of rats treated)” value ([3]; 100 μg/rat) was 1/5, the “No. of Oviductal Eggs” value ([3]; 100 μg/rat) was 3.0 and the “No. Rats Ovulated (of rats treated)” value ([3]; 250 μg/rat) was 1/5. For the same compound, the “No. of Oviductal Eggs” value ([3]; 250 μg/rat) was 6.0, the “No. Rats Ovulated (of rats treated)” value ([3]; 500 μg/rat) was 0/5 and the “No. of Oviductal Eggs” value ([3]; 500 μg/rat) was 0.0.
